Laboratory results published in ChEMBL document CHEMBL4825763, “Discovery of potent and selective Bcl-2 inhibitors with acyl sulfonamide skeleton” (Bioorg Med Chem, 2021).
Activity calls are given as the source filed them. The calls are words filed in the database; no cut-off is given here.

Assays:
RS4-11 = assay: Antiproliferative activity against human RS4-11 cells assessed as inhibition of cell proliferation measured after 72 hrs by CCK8 assay; assay type: functional, cell-based; conditions: RS4-11, 72 h
Bcl-2-like protein 1 = Bcl-2-like protein 1 (Homo sapiens, UniProt Q07817); assay: Displacement of Bak derived peptide from Bcl-xL (unknown origin) measured after 15 mins by microplate reader assay
[1] = target: Apoptosis regulator Bcl-2 (Homo sapiens, UniProt P10415); assay: Displacement of Bak derived peptide from Bcl-2 (unknown origin) measured after 15 mins by microplate reader assay
[2] = Toxicity in C57BL/6 mouse plasma assessed as effect on platelet count at 300 mg/kg, ig for 4 hrs; assay type: organism-based; conditions: in vivo, po
[3] = Half life in mouse at 10 mg/kg, ig administered as single dose measured upto 24 hrs by LC-MS/MS analysis; assay type: ADME, organism-based; conditions: in vivo, po
[4] = Half life in rat at 5 mg/kg, ig administered as single dose measured upto 24 hrs by LC-MS/MS analysis; assay type: ADME, organism-based; conditions: in vivo, po
[5] = MRT (0 to t) in rat at 5 mg/kg, ig administered as single dose measured upto 24 hrs by LC-MS/MS analysis; assay type: ADME, organism-based; conditions: in vivo, po
[6] = target: T1, Caspase-3 (Canis lupus familiaris) (UniProt Q8MKI5); assay: Induction of caspase 3 activity in dog platelets assessed as cleavage of Ac-DEVD-Pna at 0.5 to 2.5 uM using Ac-DEVD-pNA as substrate incubated for 90 mins; assay type: tissue-based; conditions: Platelet, dose 0.5-2.5 µM
T1 sequence (whole entry): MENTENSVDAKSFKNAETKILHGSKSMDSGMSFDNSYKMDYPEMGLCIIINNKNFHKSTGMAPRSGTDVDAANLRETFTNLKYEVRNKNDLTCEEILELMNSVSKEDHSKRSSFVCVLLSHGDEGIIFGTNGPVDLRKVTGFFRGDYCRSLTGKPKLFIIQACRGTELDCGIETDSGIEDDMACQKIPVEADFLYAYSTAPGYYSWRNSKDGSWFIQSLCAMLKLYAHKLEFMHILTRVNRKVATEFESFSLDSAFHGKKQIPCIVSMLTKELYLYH

[7] = Metabolic stability in mouse liver microsomes assessed as parent compound remaining incubated for 60 mins in presence of NADPH; assay type: ADME, Microsome; conditions: read-out: Stabilty
[8] = AUC (0 to t) in mouse at 10 mg/kg, ig administered as single dose measured upto 24 hrs by LC-MS/MS analysis; assay type: ADME, organism-based; design: route intragastric, dose 10 mg/kg, time <=24; conditions: in vivo, po
[9] = AUC (0 to t) in rat at 5 mg/kg, ig administered as single dose measured upto 24 hrs by LC-MS/MS analysis; assay type: ADME, organism-based; design: route intragastric, dose 5 mg/kg, time <=24; conditions: in vivo, po
[10] = Tmax in rat at 5 mg/kg, ig administered as single dose measured upto 24 hrs by LC-MS/MS analysis; assay type: ADME, organism-based; conditions: in vivo, po
[11] = MRT (0 to t) in mouse at 10 mg/kg, ig administered as single dose measured upto 24 hrs by LC-MS/MS analysis; assay type: ADME, organism-based; conditions: in vivo, po
[12] = Cmax in mouse at 10 mg/kg, ig administered as single dose v measured upto 24 hrs by LC-MS/MS analysis; assay type: ADME, organism-based; design: route intragastric, dose 10 mg/kg, time <=24; conditions: in vivo, po
[13] = Metabolic stability in rat liver microsomes assessed as parent compound remaining incubated for 60 mins in presence of NADPH; assay type: ADME, Microsome; conditions: read-out: Stabilty
[14] = AUC (0 to infinity) in mouse at 10 mg/kg, ig administered as single dose measured upto 24 hrs by LC-MS/MS analysis; assay type: ADME, organism-based; design: route intragastric, dose 10 mg/kg, time <=24; conditions: in vivo, po
[15] = AUC (0 to infinity) in rat at 5 mg/kg, ig administered as single dose measured upto 24 hrs by LC-MS/MS analysis; assay type: ADME, organism-based; design: route intragastric, dose 5 mg/kg, time <=24; conditions: in vivo, po
[16] = Tmax in mouse at 10 mg/kg, ig administered as single dose measured upto 24 hrs by LC-MS/MS analysis; assay type: ADME, organism-based; conditions: in vivo, po
[17] = Cmax in rat at 5 mg/kg, ig administered as single dose measured upto 24 hrs by LC-MS/MS analysis; assay type: ADME, organism-based; design: route intragastric, dose 5 mg/kg, time <=24; conditions: in vivo, po
[18] = Metabolic stability in human liver microsomes assessed as parent compound remaining incubated for 60 mins in presence of NADPH; assay type: ADME, Microsome; conditions: read-out: Stabilty

Chain of Bcl-2-like protein 1 (Q07817 whole entry): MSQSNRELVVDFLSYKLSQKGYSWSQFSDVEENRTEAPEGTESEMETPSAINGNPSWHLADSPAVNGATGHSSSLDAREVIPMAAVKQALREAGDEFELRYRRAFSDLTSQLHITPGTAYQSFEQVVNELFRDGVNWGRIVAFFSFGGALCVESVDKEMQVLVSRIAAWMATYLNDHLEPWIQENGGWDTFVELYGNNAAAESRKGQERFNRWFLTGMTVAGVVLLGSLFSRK
Chain of Apoptosis regulator Bcl-2 (P10415 whole entry): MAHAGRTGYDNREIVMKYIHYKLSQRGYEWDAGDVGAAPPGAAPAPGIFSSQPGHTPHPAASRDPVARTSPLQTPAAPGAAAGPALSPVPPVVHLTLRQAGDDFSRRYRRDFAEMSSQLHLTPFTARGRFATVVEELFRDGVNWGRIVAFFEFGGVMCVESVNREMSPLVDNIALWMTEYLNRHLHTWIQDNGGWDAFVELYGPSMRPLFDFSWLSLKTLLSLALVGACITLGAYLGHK

SMILES	IC50 (RS4-11) [nM]	IC50 (Bcl-2-like protein 1) [nM]	IC50 [1] [nM]	other results
CC1(C)CCC(CN2CCN(c3ccc(C(=O)NS(=O)(=O)c4ccc(NC5CCOC5)c([N+](=O)[O-])c4)c(Oc4cnc5[nH]ccc5c4)c3)CC2)=C(c2ccc(C(F)(F)F)cc2)C1 (stereo unspecified)	32	837	1.9	
CC1(C)CCC(CN2CCN(c3ccc(C(=O)NS(=O)(=O)c4ccc(OC5CCOCC5)c([N+](=O)[O-])c4)c(Oc4cnc5[nH]ccc5c4)c3)CC2)=C(c2ccc(C(F)(F)F)cc2)C1	375	> 2000	8.4	
CC1(C)CCC(CN2CCN(c3ccc(C(=O)NS(=O)(=O)c4ccc(NCC5CCOCC5)c([N+](=O)[O-])c4)c(Oc4cnc5[nH]ccc5c4)c3)CC2)=C(c2ccccc2C(F)(F)F)C1	18	200	1.7	
CC1(C)CCC(CN2CCN(c3ccc(C(=O)NS(=O)(=O)c4ccc(NCC5CCOCC5)c([N+](=O)[O-])c4)c(Oc4cnc5[nH]ccc5c4)c3)CC2)=C(c2ccc(C(F)(F)F)cc2)C1	6.2	788	1.5	
CC1(C)CCC(CN2CCN(c3ccc(C(=O)NS(=O)(=O)c4ccc(NCC5CCOCC5)c([N+](=O)[O-])c4)c(Oc4cnc5[nH]ccc5c4)c3)CC2)=C(c2ccc(Cl)cc2)C1 [VENETOCLAX]	1.8			Activity [2]: Toxic; half-life [3]: 2.78 h; half-life [4]: 1.9 h; MRT last at 24 h [5]: 3.55 h; Activity [6]: inactive; remaining at 1 h [7]: 58.8%; AUC(0-t) at 24 h [8]: 7760 ng·h/mL; AUC(0-t) at 24 h [9]: 1380 ng·h/mL; Tmax [10]: 2.67 h; MRT last at 24 h [11]: 4.71 h; Cmax [12]: 1310 ng/mL; remaining at 1 h [13]: 46.3%; AUC(0-inf) [14]: 8100 ng·h/mL; AUC(0-inf) [15]: 1470 ng·h/mL; Tmax [16]: 1.67 h; Cmax [17]: 355 ng/mL; remaining at 1 h [18]: 54.9%
CC1(C)CCC(CN2CCN(c3ccc(C(=O)NS(=O)(=O)c4ccc(OCC5CCOC5)c([N+](=O)[O-])c4)c(Oc4cnc5[nH]ccc5c4)c3)CC2)=C(c2ccc(C(F)(F)F)cc2)C1 (stereo unspecified)	47	1700	4.4	
CC1(C)CCC(CN2CCN(c3ccc(C(=O)NS(=O)(=O)c4ccc(NCC5CCOCC5)c([N+](=O)[O-])c4)c(Oc4cnc5[nH]ccc5c4)c3)CC2)=C(c2cccc(C(F)(F)F)c2)C1	63			
CN(C)CCCNc1ccc(S(=O)(=O)NC(=O)c2ccc(N3CCN(CC4=C(c5ccc(C(F)(F)F)cc5)CC(C)(C)CC4)CC3)cc2Oc2cnc3[nH]ccc3c2)cc1[N+](=O)[O-]	3.9	29	0.89	
CN1CCC(CNc2ccc(S(=O)(=O)NC(=O)c3ccc(N4CCN(CC5=C(c6ccc(C(F)(F)F)cc6)CC(C)(C)CC5)CC4)cc3Oc3cnc4[nH]ccc4c3)cc2[N+](=O)[O-])C1 (stereo unspecified)	8.3	35.7	2.4	
CCN1CCC(COc2ccc(S(=O)(=O)NC(=O)c3ccc(N4CCN(CC5=C(c6ccc(C(F)(F)F)cc6)CC(C)(C)CC5)CC4)cc3Oc3cnc4[nH]ccc4c3)cc2[N+](=O)[O-])CC1	4.9	34.6	0.5	
CC1(C)CCC(CN2CCN(c3ccc(C(=O)NS(=O)(=O)c4ccc(NCC5CCOCC5)c([N+](=O)[O-])c4)c(Oc4cnc5[nH]ccc5c4)c3)CC2)=C(c2ccc(Cl)cc2C(F)(F)F)C1	74	> 2000		
CC1(C)CCC(CN2CCN(c3ccc(C(=O)NS(=O)(=O)c4ccc(OCC5CCCOC5)c([N+](=O)[O-])c4)c(Oc4cnc5[nH]ccc5c4)c3)CC2)=C(c2ccc(C(F)(F)F)cc2)C1 (stereo unspecified)	12	761	3	
CCN(CC)CCCNc1ccc(S(=O)(=O)NC(=O)c2ccc(N3CCN(CC4=C(c5ccc(C(F)(F)F)cc5)CC(C)(C)CC4)CC3)cc2Oc2cnc3[nH]ccc3c2)cc1[N+](=O)[O-]	3	25	0.3	
CC1(C)CCC(CN2CCN(c3ccc(C(=O)NS(=O)(=O)c4ccc(NCC5CCOC5)c([N+](=O)[O-])c4)c(Oc4cnc5[nH]ccc5c4)c3)CC2)=C(c2ccc(C(F)(F)F)cc2)C1 (stereo unspecified)	24.2	897	4.7	
CC(C)C(=O)N1CCC(CNc2ccc(S(=O)(=O)NC(=O)c3ccc(N4CCN(CC5=C(c6ccc(C(F)(F)F)cc6)CC(C)(C)CC5)CC4)cc3Oc3cnc4[nH]ccc4c3)cc2[N+](=O)[O-])CC1	5.3	453	2.4	
CC1(C)CCC(CN2CCN(c3ccc(C(=O)NS(=O)(=O)c4ccc(OCC5CCSCC5)c([N+](=O)[O-])c4)c(Oc4cnc5[nH]ccc5c4)c3)CC2)=C(c2ccc(C(F)(F)F)cc2)C1	15	500	1.65	
CN1CCC(COc2ccc(S(=O)(=O)NC(=O)c3ccc(N4CCN(CC5=C(c6ccc(C(F)(F)F)cc6)CC(C)(C)CC5)CC4)cc3Oc3cnc4[nH]ccc4c3)cc2[N+](=O)[O-])C1 (stereo unspecified)	10	16.8	0.75	
CC1(C)CCC(CN2CCN(c3ccc(C(=O)NS(=O)(=O)c4ccc(NCC5CCOCC5)c([N+](=O)[O-])c4)c(Oc4cnc5[nH]ccc5c4)c3)CC2)=C(c2ccc(C(F)(F)F)c(Cl)c2)C1	81	> 2000		
COc1ccc(C2=C(CN3CCN(c4ccc(C(=O)NS(=O)(=O)c5ccc(NCC6CCOCC6)c([N+](=O)[O-])c5)c(Oc5cnc6[nH]ccc6c5)c4)CC3)CCC(C)(C)C2)cc1	12	813	3.8	
CC(Oc1ccc(S(=O)(=O)NC(=O)c2ccc(N3CCN(CC4=C(c5ccc(C(F)(F)F)cc5)CC(C)(C)CC4)CC3)cc2Oc2cnc3[nH]ccc3c2)cc1[N+](=O)[O-])C1CCOCC1 (stereo unspecified)	269	618	9.2	
CC1(C)CCC(CN2CCN(c3ccc(C(=O)NS(=O)(=O)c4ccc(OCC5CCOCC5)c([N+](=O)[O-])c4)c(Oc4cnc5[nH]ccc5c4)c3)CC2)=C(c2ccc(C(F)(F)F)cc2)C1	5.9	862	1	Activity [2]: Non-Toxic; half-life [3]: 2.99 h; half-life [4]: 4.5 h; MRT last at 24 h [5]: 5.18 h; Activity [6]: inactive; remaining at 1 h [7]: 76.6%; AUC(0-t) at 24 h [8]: 6960 ng·h/mL; AUC(0-t) at 24 h [9]: 2620 ng·h/mL; Tmax [10]: 2.67 h; MRT last at 24 h [11]: 5.7 h; Cmax [12]: 920 ng/mL; remaining at 1 h [13]: 74.8%; AUC(0-inf) [14]: 7000 ng·h/mL; AUC(0-inf) [15]: 3130 ng·h/mL; Tmax [16]: 4 h; Cmax [17]: 438 ng/mL; remaining at 1 h [18]: 75.8%
